Activity calls are given as the source filed them. The calls are words filed in the database; no cut-off is given here.
Experiments:
FaDu = test: Cytotoxicity against human FADU cells assessed as reduction in cell viability after 96 hrs by SRB assay; type: functional, cell-based
A2780 [1] = test: Cytotoxicity against human A2780 cells assessed as reduction in cell viability after 96 hrs by SRB assay; type: functional, cell-based; conditions: A2780, 96 h
HT-29 [2] = test: Cytotoxicity against human HT-29 cells assessed as reduction in cell viability after 96 hrs by SRB assay; type: functional, cell-based; conditions: HT-29, 96 h
MCF7 = test: Cytotoxicity against human MCF7 cells assessed as reduction in cell viability after 96 hrs by SRB assay; type: functional, cell-based; conditions: MCF7, 96 h
SW-1736 = test: Cytotoxicity against human SW1736 cells assessed as reduction in cell viability after 96 hrs by SRB assay; type: functional, cell-based; conditions: SW-1736, 96 h
NIH3T3 = test: Cytotoxicity against mouse NIH/3T3 cells assessed as reduction in cell viability after 96 hrs by SRB assay; type: cell-based; conditions: NIH3T3, 96 h
HT-29 [3] = test: Potency index, ratio of hederagenin EC50 to test compound EC50 for cytotoxicity against human HT-29 cells; type: functional
HT-29 [4] = test: Potency index, ratio of betulinic acid EC50 to test compound EC50 for cytotoxicity against human HT-29 cells; type: functional
HT-29 [5] = test: Cytotoxicity against human HT-29 cells assessed as cell membrane permeability at 2.5 to 5 uM after 24 hrs by acridine orange/propidium iodide staining based fluorescence microscopic method; type: functional
A2780 [6] = test: Cytotoxicity against human A2780 cells assessed as cell membrane permeability at 6 uM after 24 hrs by acridine orange/propidium iodide staining based fluorescence microscopic method; type: functional
A2780 [7] = test: Induction of apoptosis in human A2780 cells assessed as increase in secondary necrotic cells at 6 uM after 24 hrs by Annexin V-FITC/propidium iodide staining-based flow cytometric analysis; type: functional, cell-based
A2780 [8] = test: Potency index, ratio of hederagenin EC50 to test compound EC50 for cytotoxicity against human A2780 cells; type: functional
A2780 [9] = test: Potency index, ratio of acetylated hederagenin EC50 to test compound EC50 for cytotoxicity against human A2780 cells; type: functional
A2780 [10] = test: Potency index, ratio of betulinic acid EC50 to test compound EC50 for cytotoxicity against human A2780 cells; type: functional

## CC(=O)OC[C@@]1(C)[C@@H]2CC[C@]3(C)[C@H](CC=C4[C@@H]5CC(C)(C)CC[C@]5(C(=O)NCc5cn(Cc6ccccc6Br)nn5)CC[C@]43C)[C@@]2(C)CC[C@@H]1OC(C)=O
FaDu
  EC50: 2.5 µM
A2780 [1]
  EC50: 1.7 µM
HT-29 [2]
  EC50: 1.9 µM
MCF7
  EC50: 3 µM
SW-1736
  EC50: 2.3 µM
NIH3T3
  EC50: 3.4 µM

## COC(=O)CNC(=O)[C@]12CCC(C)(C)C[C@H]1C1=CC[C@@H]3[C@@]4(C)CC[C@H](OC(C)=O)[C@@](C)(COC(C)=O)[C@@H]4CC[C@@]3(C)[C@]1(C)CC2
FaDu
  EC50: 3.1 µM
A2780 [1]
  EC50: 1.7 µM
HT-29 [2]
  EC50: 3.7 µM
MCF7
  EC50: 4.5 µM
SW-1736
  EC50: 4.8 µM
NIH3T3
  EC50: 8.4 µM

## CC(=O)OC[C@@]1(C)[C@@H]2CC[C@]3(C)[C@H](CC=C4[C@@H]5CC(C)(C)CC[C@]5(C(=O)NCc5cn(Cc6ccccc6[N+](=O)[O-])nn5)CC[C@]43C)[C@@]2(C)CC[C@@H]1OC(C)=O
FaDu
  EC50: 2.8 µM
A2780 [1]
  EC50: 1.6 µM
HT-29 [2]
  EC50: 1.9 µM
MCF7
  EC50: 2.7 µM
SW-1736
  EC50: 3.8 µM
NIH3T3
  EC50: 2.1 µM

## CC(=O)OC[C@@]1(C)[C@@H]2CC[C@]3(C)[C@H](CC=C4[C@@H]5CC(C)(C)CC[C@]5(C(=O)N5CCNCC5)CC[C@]43C)[C@@]2(C)CC[C@@H]1OC(C)=O
FaDu
  EC50: 5.3 µM
A2780 [1]
  EC50: 1.9 µM
HT-29 [2]
  EC50: 6.7 µM
MCF7
  EC50: 6.1 µM
SW-1736
  EC50: 9 µM
NIH3T3
  EC50: 10.8 µM

## CC(=O)OC[C@@]1(C)[C@@H]2CC[C@]3(C)[C@H](CC=C4[C@@H]5CC(C)(C)CC[C@]5(C(=O)NCCN5CCCCC5)CC[C@]43C)[C@@]2(C)CC[C@@H]1OC(C)=O
FaDu
  EC50: 4.3 µM
A2780 [1]
  EC50: 2.1 µM
HT-29 [2]
  EC50: 2.1 µM
MCF7
  EC50: 3.2 µM
SW-1736
  EC50: 4.7 µM
NIH3T3
  EC50: 3.2 µM

## CC1(C)CC[C@]2(C(=O)N3CCCCC3)CC[C@]3(C)C(=CC[C@@H]4[C@@]5(C)CC[C@H](O)[C@@](C)(CO)[C@@H]5CC[C@]43C)[C@@H]2C1
FaDu
  EC50: 20.8 µM
A2780 [1]
  EC50: 18.2 µM
HT-29 [2]
  EC50: 18.3 µM
MCF7
  EC50: 7.8 µM
SW-1736
  EC50: 19.2 µM
NIH3T3
  EC50: 18.5 µM

## CC1(C)CC[C@]2(C(=O)N3CCCC3)CC[C@]3(C)C(=CC[C@@H]4[C@@]5(C)CC[C@H](O)[C@@](C)(CO)[C@@H]5CC[C@]43C)[C@@H]2C1
FaDu
  EC50: 2.8 µM
A2780 [1]
  EC50: 3 µM
HT-29 [2]
  EC50: 1.2 µM
SW-1736
  EC50: 3.6 µM
NIH3T3
  EC50: 2.2 µM
HT-29 [3]
  Ratio EC50: 30
HT-29 [4]
  Ratio EC50: 15
HT-29 [5]
  Activity: Active
A2780 [6]
  Activity: Active
A2780 [7]
  Activity: Active

## COC(=O)C(NC(=O)[C@]12CCC(C)(C)C[C@H]1C1=CC[C@@H]3[C@@]4(C)CC[C@H](OC(C)=O)[C@@](C)(COC(C)=O)[C@@H]4CC[C@@]3(C)[C@]1(C)CC2)c1ccccc1 (some centres not stated)
FaDu
  EC50: 4.6 µM
A2780 [1]
  EC50: 3.3 µM
HT-29 [2]
  EC50: 5.1 µM
MCF7
  EC50: 5.7 µM
SW-1736
  EC50: 6.3 µM
NIH3T3
  EC50: 12.9 µM

## CC(=O)OC[C@@]1(C)[C@@H]2CC[C@]3(C)[C@H](CC=C4[C@@H]5CC(C)(C)CC[C@]5(C(=O)NCCc5ccccn5)CC[C@]43C)[C@@]2(C)CC[C@@H]1OC(C)=O
FaDu
  EC50: 2.8 µM
A2780 [1]
  EC50: 1.5 µM
HT-29 [2]
  EC50: 3.3 µM
MCF7
  EC50: 3.5 µM
SW-1736
  EC50: 3.4 µM
NIH3T3
  EC50: 7.1 µM

## C=C(C)[C@@H]1CC[C@]2(C(=O)O)CC[C@]3(C)[C@H](CC[C@@H]4[C@@]5(C)CC[C@H](O)C(C)(C)[C@@H]5CC[C@]43C)[C@@H]12 [BETULINIC ACID]
MCF7
  EC50: 12 µM

## CC1(C)CC[C@]2(C(=O)N3CCNCC3)CC[C@]3(C)C(=CC[C@@H]4[C@@]5(C)CC[C@H](O)[C@@](C)(CO)[C@@H]5CC[C@]43C)[C@@H]2C1
FaDu
  EC50: > 30 µM
A2780 [1]
  EC50: 19.4 µM
HT-29 [2]
  EC50: 22.5 µM
SW-1736
  EC50: > 30 µM
NIH3T3
  EC50: 17.4 µM

## CC(=O)OC[C@@]1(C)[C@@H]2CC[C@]3(C)[C@H](CC=C4[C@@H]5CC(C)(C)CC[C@]5(C(=O)N5CCCCC5)CC[C@]43C)[C@@]2(C)CC[C@@H]1OC(C)=O
FaDu
  EC50: 5.5 µM
A2780 [1]
  EC50: 2.8 µM
HT-29 [2]
  EC50: 5.7 µM
MCF7
  EC50: 6.2 µM
SW-1736
  EC50: 7.1 µM
NIH3T3
  EC50: 15.2 µM

## CC1(C)CC[C@]2(C(=O)O)CC[C@]3(C)C(=CC[C@@H]4[C@@]5(C)CC[C@H](O)[C@@](C)(CO)[C@@H]5CC[C@]43C)[C@@H]2C1 [HEDERAGENIN]
FaDu
  EC50: > 30 µM
A2780 [1]
  EC50: > 30 µM
HT-29 [2]
  EC50: > 30 µM
MCF7
  EC50: > 30 µM
SW-1736
  EC50: > 30 µM
NIH3T3
  EC50: > 30 µM

## CC(=O)OC[C@@]1(C)[C@@H]2CC[C@]3(C)[C@H](CC=C4[C@@H]5CC(C)(C)CC[C@]5(C(=O)NCCN5CCOCC5)CC[C@]43C)[C@@]2(C)CC[C@@H]1OC(C)=O
FaDu
  EC50: 3.3 µM
A2780 [1]
  EC50: 1.2 µM
HT-29 [2]
  EC50: 2.8 µM
MCF7
  EC50: 3.8 µM
SW-1736
  EC50: 3.9 µM
NIH3T3
  EC50: 7.6 µM

## CC(=O)OC[C@@]1(C)[C@@H]2CC[C@]3(C)[C@H](CC=C4[C@@H]5CC(C)(C)CC[C@]5(C(=O)NCCCCN)CC[C@]43C)[C@@]2(C)CC[C@@H]1OC(C)=O
FaDu
  EC50: > 30 µM
A2780 [1]
  EC50: > 30 µM
HT-29 [2]
  EC50: > 30 µM
MCF7
  EC50: > 30 µM
SW-1736
  EC50: > 30 µM
NIH3T3
  EC50: > 30 µM

## CC1(C)CC[C@]2(C(=O)NCCCCN)CC[C@]3(C)C(=CC[C@@H]4[C@@]5(C)CC[C@H](O)[C@@](C)(CO)[C@@H]5CC[C@]43C)[C@@H]2C1
FaDu
  EC50: > 30 µM
A2780 [1]
  EC50: 9.7 µM
HT-29 [2]
  EC50: 6.1 µM
MCF7
  EC50: > 30 µM
SW-1736
  EC50: 12.2 µM
NIH3T3
  EC50: 7 µM

## COC(=O)CNC(=O)[C@]12CCC(C)(C)C[C@H]1C1=CC[C@@H]3[C@@]4(C)CC[C@H](O)[C@@](C)(CO)[C@@H]4CC[C@@]3(C)[C@]1(C)CC2
FaDu
  EC50: > 30 µM
A2780 [1]
  EC50: > 30 µM
HT-29 [2]
  EC50: > 30 µM
SW-1736
  EC50: > 30 µM
NIH3T3
  EC50: > 30 µM

## CC(=O)OC[C@@]1(C)[C@@H]2CC[C@]3(C)[C@H](CC=C4[C@@H]5CC(C)(C)CC[C@]5(C(=O)NCc5cn(Cc6ccccc6F)nn5)CC[C@]43C)[C@@]2(C)CC[C@@H]1OC(C)=O
FaDu
  EC50: 2.8 µM
A2780 [1]
  EC50: 1.3 µM
HT-29 [2]
  EC50: 3 µM
MCF7
  EC50: 2.8 µM
SW-1736
  EC50: 4.7 µM
NIH3T3
  EC50: 6.9 µM

## CC(=O)OC[C@@]1(C)[C@@H]2CC[C@]3(C)[C@H](CC=C4[C@@H]5CC(C)(C)CC[C@]5(C(=O)O)CC[C@]43C)[C@@]2(C)CC[C@@H]1OC(C)=O
FaDu
  EC50: 15.4 µM
A2780 [1]
  EC50: 11.9 µM
HT-29 [2]
  EC50: 19 µM
MCF7
  EC50: 9.8 µM
SW-1736
  EC50: 17.7 µM
NIH3T3
  EC50: 9.6 µM

## CC(=O)OC[C@@]1(C)[C@@H]2CC[C@]3(C)[C@H](CC=C4[C@@H]5CC(C)(C)CC[C@]5(C(=O)N5CCCC5)CC[C@]43C)[C@@]2(C)CC[C@@H]1OC(C)=O
FaDu
  EC50: 1.6 µM
A2780 [1]
  EC50: 0.4 µM
HT-29 [2]
  EC50: 1.8 µM
MCF7
  EC50: 2.5 µM
SW-1736
  EC50: 1.7 µM
NIH3T3
  EC50: 9.6 µM
A2780 [8]
  Ratio EC50: 70
A2780 [9]
  Ratio EC50: 29
A2780 [10]
  Ratio EC50: 32

## CC(=O)OC[C@@]1(C)[C@@H]2CC[C@]3(C)[C@H](CC=C4[C@@H]5CC(C)(C)CC[C@]5(C(=O)NCCN5CCCC5)CC[C@]43C)[C@@]2(C)CC[C@@H]1OC(C)=O
FaDu
  EC50: 4 µM
A2780 [1]
  EC50: 1.9 µM
HT-29 [2]
  EC50: 1.5 µM
MCF7
  EC50: 2.6 µM
SW-1736
  EC50: 3.6 µM
NIH3T3
  EC50: 2.2 µM

## COC(=O)C(NC(=O)[C@]12CCC(C)(C)C[C@H]1C1=CC[C@@H]3[C@@]4(C)CC[C@H](O)[C@@](C)(CO)[C@@H]4CC[C@@]3(C)[C@]1(C)CC2)c1ccccc1 (some centres not stated)
FaDu
  EC50: > 30 µM
A2780 [1]
  EC50: > 30 µM
HT-29 [2]
  EC50: > 30 µM
SW-1736
  EC50: > 30 µM
NIH3T3
  EC50: > 30 µM

## CC(=O)OC[C@@]1(C)[C@@H]2CC[C@]3(C)[C@H](CC=C4[C@@H]5CC(C)(C)CC[C@]5(C(=O)NCc5cn(Cc6ccccc6Cl)nn5)CC[C@]43C)[C@@]2(C)CC[C@@H]1OC(C)=O
FaDu
  EC50: 2.2 µM
A2780 [1]
  EC50: 1.7 µM
HT-29 [2]
  EC50: 1.7 µM
MCF7
  EC50: 2.6 µM
SW-1736
  EC50: 1.8 µM
NIH3T3
  EC50: 3.6 µM
